{
  "source": "paper PMC3858179",
  "about": "(Journal of medicinal chemistry, 2008)",
  "key": {"human TS": {"target": "human TS (Homo sapiens, UniProt P04818)", "sequence (P04818 whole entry)": "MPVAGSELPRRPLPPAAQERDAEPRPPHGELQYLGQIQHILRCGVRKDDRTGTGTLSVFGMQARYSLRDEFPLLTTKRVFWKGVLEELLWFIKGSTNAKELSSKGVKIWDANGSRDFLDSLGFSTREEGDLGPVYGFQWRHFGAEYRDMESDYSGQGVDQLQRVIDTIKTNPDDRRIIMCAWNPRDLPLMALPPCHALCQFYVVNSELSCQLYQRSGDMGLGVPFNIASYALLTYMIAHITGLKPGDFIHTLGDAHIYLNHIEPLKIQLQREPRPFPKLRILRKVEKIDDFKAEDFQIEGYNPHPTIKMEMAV", "assay": "Inhibition of isolated human TS", "format": "biochemical"}, "human DHFR": {"target": "T1, human DHFR (Homo sapiens, UniProt P00374)", "T1 sequence (P00374 1-187)": "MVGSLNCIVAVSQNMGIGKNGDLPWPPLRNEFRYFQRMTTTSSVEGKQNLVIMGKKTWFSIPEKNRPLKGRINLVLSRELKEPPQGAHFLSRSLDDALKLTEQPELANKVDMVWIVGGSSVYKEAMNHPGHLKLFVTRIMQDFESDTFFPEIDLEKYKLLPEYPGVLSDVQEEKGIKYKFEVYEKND", "assay": "Inhibition of isolated human DHFR", "format": "biochemical"}, "P. carinii DHFR": {"target": "P. carinii DHFR (Pneumocystis carinii, UniProt P16184)", "sequence (P16184 whole entry)": "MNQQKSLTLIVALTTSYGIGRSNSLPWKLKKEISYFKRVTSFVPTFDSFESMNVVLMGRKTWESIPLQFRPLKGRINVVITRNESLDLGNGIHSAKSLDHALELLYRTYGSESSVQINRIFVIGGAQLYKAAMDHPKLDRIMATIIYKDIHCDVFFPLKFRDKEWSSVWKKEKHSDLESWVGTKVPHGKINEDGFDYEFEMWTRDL", "assay": "biochemical"}, "rat liver DHFR": {"target": "rat liver DHFR (Rattus norvegicus, UniProt Q920D2)", "sequence (Q920D2 whole entry)": "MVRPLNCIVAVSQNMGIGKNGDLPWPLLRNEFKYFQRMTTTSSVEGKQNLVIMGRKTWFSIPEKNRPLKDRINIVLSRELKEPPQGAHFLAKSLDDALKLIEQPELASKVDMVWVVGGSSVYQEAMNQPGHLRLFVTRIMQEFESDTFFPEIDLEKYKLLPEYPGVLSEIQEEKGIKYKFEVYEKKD", "assay": "Inhibition of isolated rat liver DHFR", "format": "biochemical"}, "M. avium DHFR": {"target": "M. avium DHFR (Mycobacterium avium, UniProt O30463)", "sequence (O30463 1-181)": "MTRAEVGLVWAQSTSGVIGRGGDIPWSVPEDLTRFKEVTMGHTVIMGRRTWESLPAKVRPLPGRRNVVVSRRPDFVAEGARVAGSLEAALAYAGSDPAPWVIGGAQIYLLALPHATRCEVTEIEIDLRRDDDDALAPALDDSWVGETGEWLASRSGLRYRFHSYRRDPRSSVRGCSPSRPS", "assay": "Inhibition of isolated M. avium DHFR", "format": "biochemical"}, "T. gondii DHFR": {"target": "T2, T. gondii DHFR (Toxoplasma gondii, UniProt Q07422)", "T2 sequence (Q07422 1-610)": "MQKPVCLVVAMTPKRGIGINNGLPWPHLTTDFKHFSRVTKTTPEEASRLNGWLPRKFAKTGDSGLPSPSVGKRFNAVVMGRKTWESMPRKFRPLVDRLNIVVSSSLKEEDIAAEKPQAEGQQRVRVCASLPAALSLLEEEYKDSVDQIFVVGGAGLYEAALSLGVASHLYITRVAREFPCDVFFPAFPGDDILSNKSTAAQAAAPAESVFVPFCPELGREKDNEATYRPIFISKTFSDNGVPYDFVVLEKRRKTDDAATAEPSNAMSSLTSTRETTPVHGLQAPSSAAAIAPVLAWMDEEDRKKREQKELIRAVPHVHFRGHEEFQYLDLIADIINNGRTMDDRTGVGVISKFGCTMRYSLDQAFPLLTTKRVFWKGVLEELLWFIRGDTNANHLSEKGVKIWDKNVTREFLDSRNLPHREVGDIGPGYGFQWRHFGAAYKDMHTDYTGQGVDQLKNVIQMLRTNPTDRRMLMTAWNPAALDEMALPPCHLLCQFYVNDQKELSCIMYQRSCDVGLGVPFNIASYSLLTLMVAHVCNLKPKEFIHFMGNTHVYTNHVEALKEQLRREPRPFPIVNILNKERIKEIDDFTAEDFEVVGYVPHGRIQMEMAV", "format": "biochemical", "settings": "20 compounds jointly assayed, by both protocols (Table 1 and Table 2 conditions)"}, "60 tumor cell lines": {"test_system": "60 tumor cell lines", "assay": "NCI in vitro preclinical antitumor screening, 60 tumor cell lines", "format": "cell-based"}, "CCRF-CEM": {"test_system": "CCRF-CEM", "assay": "NCI tumor cell growth inhibition, CCRF-CEM", "format": "cell-based", "settings": "Homo sapiens, read-out: GI50 CCRF-CEM"}, "HL-60 × (TB)": {"test_system": "HL-60 × (TB)", "assay": "NCI tumor cell growth inhibition, HL-60 ×", "format": "cell-based", "settings": "Homo sapiens, HL-60, read-out: GI50 HL-60 × (TB)"}, "K-562": {"test_system": "K-562", "assay": "NCI tumor cell growth inhibition, K-562", "format": "cell-based", "settings": "Homo sapiens, K562, read-out: GI50 K-562"}, "MOLT-4": {"test_system": "MOLT-4", "assay": "NCI tumor cell growth inhibition, MOLT-4", "format": "cell-based", "settings": "Homo sapiens, MOLT-4, read-out: GI50 MOLT-4"}, "RPMI-8226": {"test_system": "RPMI-8226", "assay": "NCI tumor cell growth inhibition, RPMI-8226", "format": "cell-based", "settings": "Homo sapiens, RPMI-8226, read-out: GI50 RPMI-8226"}, "NCI-H460": {"test_system": "NCI-H460", "assay": "NCI tumor cell growth inhibition, NCI-H460", "format": "cell-based", "settings": "Homo sapiens, NCI-H460, read-out: GI50 NCI-H460"}, "HT29": {"test_system": "HT29", "assay": "NCI tumor cell growth inhibition, HT29", "format": "cell-based", "settings": "Homo sapiens, HT-29, read-out: GI50 HT29"}, "SW-620": {"test_system": "SW-620", "assay": "NCI tumor cell growth inhibition, SW-620", "format": "cell-based", "settings": "Homo sapiens, SW-620, read-out: GI50 SW-620"}, "HCT 15": {"test_system": "HCT 15", "assay": "NCI tumor cell growth inhibition, HCT 15", "format": "cell-based", "settings": "Homo sapiens, HCT-15, read-out: GI50 HCT 15"}, "U251": {"test_system": "U251", "assay": "NCI tumor cell growth inhibition, U251", "format": "cell-based", "settings": "Homo sapiens, U-251, read-out: GI50 U251"}, "SF268": {"test_system": "SF268", "assay": "NCI tumor cell growth inhibition, SF268", "format": "cell-based", "settings": "Homo sapiens, SF-268, read-out: GI50 SF268"}, "LOX IMVI": {"test_system": "LOX IMVI", "assay": "NCI tumor cell growth inhibition, LOX IMVI", "format": "cell-based", "settings": "Homo sapiens, read-out: GI50 LOX IMVI"}, "ACHN": {"test_system": "ACHN", "assay": "NCI tumor cell growth inhibition, ACHN", "format": "cell-based", "settings": "Homo sapiens, read-out: GI50 ACHN"}, "CAKI-1": {"test_system": "CAKI-1", "assay": "NCI tumor cell growth inhibition, CAKI-1", "format": "cell-based", "settings": "Homo sapiens, CAKI-1, read-out: GI50 CAKI-1"}},
  "note": "pIC50: −log10 of the molar value.",
  "data": [
    {"compound": "CC(C)c1c(Sc2ccc(C(=O)N[C@@H](CCC(=O)O)C(=O)O)cc2)[nH]c2nc(N)nc(N)c12", "note": "[Compound 4, N-[4-[(2,4-Diamino-5-isopropyl-7H-pyrrolo[2,3-d]pyrimidin-6-yl)sulfanyl]-benzoyl]-L-glutamate]", "values": [
      {"measurement": "fold less inhibitory than pemetrexed against hTS", "setting": "human TS", "result": 4, "unit": "fold"},
      {"measurement": "fold less potent than 1 as inhibitor of hTS", "setting": "human TS", "result": "63-74 fold"},
      {"measurement": "pIC50", "setting": "human DHFR", "result": 7.05},
      {"measurement": "fold less potent as hDHFR inhibitor compared with MTX", "setting": "human DHFR", "result": "~4", "unit": "fold"},
      {"measurement": "fold more potent than pemetrexed as hDHFR inhibitor", "setting": "human DHFR", "result": "~17", "unit": "fold"},
      {"measurement": "inhibition of hDHFR, in words", "setting": "human DHFR", "result": "good inhibitors"},
      {"measurement": "pIC50", "setting": "P. carinii DHFR", "result": 8.32},
      {"measurement": "Selectivity ratio rl/pc", "setting": "P. carinii DHFR; IC50 rat liver DHFR/IC50 P. carinii DHFR", "result": 38.8},
      {"measurement": "pIC50", "setting": "rat liver DHFR", "result": 6.73},
      {"measurement": "pIC50", "setting": "M. avium DHFR", "result": 9.41},
      {"measurement": "Selectivity ratio rl/ma", "setting": "M. avium DHFR; IC50 rat liver DHFR/IC50 M. avium DHFR", "result": 475.7},
      {"measurement": "potency rank against T. gondii DHFR, in words", "setting": "T. gondii DHFR", "result": "three most potent compounds"},
      {"measurement": "GI50", "setting": "60 tumor cell lines", "result": "< 1", "unit": "µM"},
      {"measurement": "GI50", "setting": "CCRF-CEM", "result": 0.536, "unit": "µM"},
      {"measurement": "GI50", "setting": "HL-60 × (TB)", "result": 5.65, "unit": "µM"},
      {"measurement": "GI50", "setting": "K-562", "result": 0.932, "unit": "µM"},
      {"measurement": "GI50", "setting": "MOLT-4", "result": 1.31, "unit": "µM"},
      {"measurement": "GI50", "setting": "RPMI-8226", "result": 7.74, "unit": "µM"},
      {"measurement": "GI50", "setting": "NCI-H460", "result": 6.45, "unit": "µM"},
      {"measurement": "GI50", "setting": "HT29", "result": 5.76, "unit": "µM"},
      {"measurement": "GI50", "setting": "SW-620", "result": 4.71, "unit": "µM"},
      {"measurement": "GI50", "setting": "HCT 15", "result": 34.8, "unit": "µM"},
      {"measurement": "GI50", "setting": "U251", "result": 7.24, "unit": "µM"},
      {"measurement": "GI50", "setting": "SF268", "result": 17.8, "unit": "µM"},
      {"measurement": "GI50", "setting": "LOX IMVI", "result": 1.14, "unit": "µM"},
      {"measurement": "GI50", "setting": "ACHN", "result": 7.39, "unit": "µM"},
      {"measurement": "GI50", "setting": "CAKI-1", "result": 4.25, "unit": "µM"}
    ]}
  ]
}
